Assay results as given in ChEMBL document CHEMBL6134849, “A Water-Soluble Aggregation-Induced Emission Photosensitizer with Intrinsic Antibacterial Activity as an Antiplanktonic and Antibiofilm Therapeutic Agent” (J Med Chem, 2025).
Calls of active or inactive are those of the source. No cut-off for these calls is given here.

Tests used:
[1] = tested on: Lipoteichoic acid; assay: Displacement of BODIPY-TR Cadaverine from Staphylococcus aureus lipoteichoic acid (LTA) assessed as increase in fluorescence intensity at 10 uM incubated for 30 mins by fluorescence based plate reader analysis
[2] = tested on: Lipopolysaccharide (LPS); assay: Displacement of BODIPY-TR Cadaverine from Pseudomonas aeruginosa lipopolysaccharide (LPS) assessed as increase in fluorescence intensity at 10 uM incubated for 30 mins by fluorescence based plate reader analysis
[3] = Induction of type-I ROS generation in PBS assessed as increase in nonspecific ROS by measuring increase in DHR123 fluorescence intensity at 10 uM irradiated with 660 nm 60 mW/cm2 light for 15 mins by DHR123 probe based plate reader analysis; assay type: functional
[4] = Induction of type-II ROS generation in PBS assessed as increase in nonspecific ROS by measuring increase in DHR123 fluorescence intensity at 10 uM irradiated with 660 nm 60 mW/cm2 light for 15 mins by DHR123 probe based plate reader analysis; assay type: functional
[5] = Induction of type-I ROS generation in PBS assessed as increase in hydroxyl radical by measuring increase in HPF fluorescence intensity at 10 uM irradiated with 660 nm 60 mW/cm2 light for 15 mins by HPF probe based plate reader analysis; assay type: functional
[6] = Induction of […] ROS generation in PBS assessed as increase in hydroxyl radical by measuring increase in HPF fluorescence intensity at 10 uM irradiated with 660 nm 60 mW/cm2 light for 15 mins by HPF probe based plate reader analysis; assay type: functional
[7] = Induction of type-I ROS generation in PBS assessed as increase in singlet oxygen by measuring increase in SOSG fluorescence intensity at 10 uM irradiated with 660 nm 60 mW/cm2 light for 15 mins by SOSG probe based plate reader analysis; assay type: functional
[8] = Induction of type-II ROS generation in PBS assessed as increase in singlet oxygen by measuring increase in SOSG fluorescence intensity at 10 uM irradiated with 660 nm 60 mW/cm2 light for 15 mins by SOSG probe based plate reader analysis; assay type: functional

Activity [1]: Active
Activity [2]: Active
SMILES: CC[n+]1c(/C=C/c2ccc(-c3ccc(N(c4ccc(OCCC[N+](C)(C)C)cc4)c4ccc(OCCC[N+](C)(C)C)cc4)cc3)s2)sc2ccccc21
Activity [3]: Active
Activity [4]: Active
Activity [5]: Active
Activity [6]: Active
Activity [7]: Active
Activity [8]: Active
